Laboratory results taken from patent publication US20260078120A1, “SUBSTITUTED PYRIDOPYRIMIDINONES” (MIRATI THERAPEUTICS, INC., priority 2022, published 2026).
pIC50: −log10 of the molar value.

What was measured:
Format in all cases: cell-based
[1] = system: T47D (PI3Kα H1047R mutant) cells; test: Inhibition of pAKT formation, alphaLISA SureFire Ultra AKT 1/2/3 (pS473), T47D cells; details: Homo sapiens, T47D; for pIC50: T47D (PI3Kα H1047R mutant) cells, inhibition of pAKT (pS473) formation, approximately one hour or 24 hours treatment, read-out: T47D pAKT (H1047R mutant) IC50; for IC50: read-out: T47D pAKT (H1047R mutant) IC50 (nM)
How it was run: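 AKT Ser473 phosphorylation was quantified by alphaLISA SureFire Ultra after roughly 1 h or 24 h compound exposure at 37 °C. Cells were T47D (12,000/well in HBSS), treated with a 10-point 1:4 series starting at 10.4 μM. Percent of control used alpelisib background and DMSO reference, and IC50 came from four-parameter logistic fitting.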

[2] = system: MKN1 (PI3Kα E545K mutant) cells; test: Inhibition of pAKT formation, alphaLISA SureFire Ultra AKT 1/2/3 (pS473), MKN1 cells; details: Homo sapiens; for pIC50: MKN-1, MKN1 (PI3Kα E545K mutant) cells, inhibition of pAKT (pS473) formation, approximately one hour or 24 hours treatment, read-out: MKN1 (E545K) pAKT IC50; for IC50: MKN-1, read-out: MKN1 (E545K) pAKT IC50 (nM)
How it was run: (§1)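 Cells seeded in HBSS (SKBR3 12,000/well, MKN1 24,000/well) and dosed immediately, 10-point 1:4 series from […], for about 1 h or 24 h at 37 °C. pAKT S473 by alphaLISA after lysis; signal normalised to alpelisib and DMSO controls, IC50 by four-parameter fit.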

[3] = system: SKBR3 (PI3Kα wild type) cells; test: Inhibition of pAKT formation, alphaLISA SureFire Ultra AKT 1/2/3 (pS473), SKBR3 cells; details: Homo sapiens, SK-BR-3; Inhibition of pAKT in SKBR3 (PI3Kα wild type) cells; read-out: SKBR3 (WT) pAKT IC50 (nM) (H1047R mutant) IC50
How it was run: as §1

[4] = system: T47D (PI3Kα H1047R mutant) cells; test: CellTiter-Glo 2.0 luminescent cell viability assay, 72 hours, T47D cells; details: Homo sapiens, T47D, 72 h; for pIC50: T47D (PI3Kα H1047R mutant) cells, CellTiter-Glo, approximately 72 hours, read-out: T47D (H1047R mutant) Viability IC50; for IC50: read-out: T47D (H1047R mutant) Viability IC50 (nM)
How it was run: (§2)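 Viability was measured by CellTiter-Glo 2.0 luminescence after approximately 72 h of compound exposure at 37° C. Plating was 1000 cells per well the day before dosing, with ten 1:4 dilutions from a 10 µM top concentration. Values as percent of vehicle were fitted by variable-slope log(inhibitor) regression to give IC50.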

[5] = system: MKN1 (PI3Kα E545K mutant) cells; test: CellTiter-Glo 2.0 luminescent cell viability assay, 72 hours, MKN1 cells; details: Homo sapiens; for pIC50: MKN-1, MKN1 (PI3Kα E545K mutant) cells, CellTiter-Glo, approximately 72 hours, read-out: MKN1 (E545K) Viability IC50; for IC50: MKN-1, 72 h, read-out: MKN1 (E545K) Viability IC50 (nM)
How it was run: as §2

[6] = system: SKBR3 (PI3Kα wild type) cells; test: CellTiter-Glo 2.0 luminescent cell viability assay, 72 hours, SKBR3 cells; details: Homo sapiens, SK-BR-3, 72 h; for pIC50: SKBR3 (PI3Kα wild type) cells, CellTiter-Glo, approximately 72 hours, read-out: SKBR3 (WT) Viability IC50; for IC50: read-out: SKBR3 (WT) Viability IC50 (nM)
How it was run: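 Viability measured via CTG luminescence following roughly 72 hours of compound exposure at 37° C. Dosing used a 10 um starting concentration diluted 1:4 over 10 points; percent-of-vehicle data fitted with a variable-slope four-parameter model for IC50.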

| Compound | pIC50 [1] | pIC50 [2] | IC50 [3] [nM] | pIC50 [4] | pIC50 [5] | pIC50 [6] | IC50 [1] [nM] | IC50 [2] [nM] | IC50 [4] [nM] | IC50 [5] [nM] | IC50 [6] [nM] |
| --- | --- | --- | --- | --- | --- | --- | --- | --- | --- | --- | --- |
| Cc1c(N2CCCCC2)nc2c(C(C)Nc3ccccc3C(=O)O)cccn2c1=O (stereo not drawn) [Example 5-11, 2-((1-(3-methyl-4-oxo-2-(piperidin-1-yl)-4H-pyrido[1,2-a]pyrimidin-9-yl)ethyl)amino)benzoic acid] | 7.96 | 5.51 | > 10000 | 6.14 | < 5.00 | < 5.00 | – | – | – | – | – |
| Cc1cc(C(C)Nc2ccccc2C(=O)O)c2nc(C)cc(=O)n2c1 (stereo not drawn) [Example 6-1, 2-((1-(2,7-dimethyl-4-oxo-4H-pyrido[1,2-a]pyrimidin-9-yl)ethyl)amino)benzoic acid] | – | – | > 10000 | – | – | – | 3370 | > 10000 | > 10000 | > 10000 | > 10000 |
| Cc1cc(C(C)Nc2ccccc2C(=O)O)c2nc(-c3ccccc3)cc(=O)n2c1 (stereo not drawn) [Example 7-1, 2-((1-(7-methyl-4-oxo-2-phenyl-4H-pyrido[1,2-a]pyrimidin-9-yl)ethyl)amino)benzoic acid] | – | – | 6650 | – | – | – | 13.3 | 6420 | 3140 | > 10000 | > 10000 |
| Cc1cc(C(C)Nc2ccccc2C(=O)O)c2nc(N3CCCCC3)c(C#N)c(=O)n2c1 (stereo not drawn) [Example 8-1, 2-((1-(3-cyano-7-methyl-4-oxo-2-(piperidin-1-yl)-4H-pyrido[1,2-a]pyrimidin-9-yl)ethyl)amino)benzoic acid] | 7.27 | 5.26 | 932 | 6.78 | 5.01 | < 5.00 | – | – | – | – | – |
| Cc1cc(C(C)Nc2ccccc2C(=O)O)c2nc(C3CCOCC3)cc(=O)n2c1 (stereo not drawn) [Example 9-1, 2-((1-(7-methyl-4-oxo-2-(tetrahydro-2H-pyran-4-yl)-4H-pyrido[1,2-a]pyrimidin-9-yl)ethyl)amino)benzoic acid] | 7.67 | < 5.00 | > 10000 | 5.59 | < 5.00 | < 5.00 | – | – | – | – | – |
| CC(Nc1ccccc1C(=O)O)c1cccn2c(=O)cc(N3CCC(C)(C)CC3)nc12 (stereo not drawn) [Example 9-2, 2-((1-(2-(4,4-dimethylpiperidin-1-yl)-4-oxo-4H-pyrido[1,2-a]pyrimidin-9-yl)ethyl)amino) benzoic acid] | 7.47 | < 5.00 | > 10000 | < 5.00 | < 5.00 | < 5.00 | – | – | – | – | – |
| Cc1cc(C(C)Nc2ccccc2C(=O)O)c2nc(OCc3ccccc3)cc(=O)n2c1 (stereo not drawn) [Example 9-3, 2-((1-(2-(benzyloxy)-7-methyl-4-oxo-4H-pyrido[1,2-a]pyrimidin-9-yl)ethyl)amino)benzoic acid] | 6.89 | < 5.00 | > 10000 | 5.35 | 5.42 | 5.32 | – | – | – | – | – |
